Tests used:
[1] = system: per1 gene expression in skin cells; test: observation of per1 gene expression in skin cells (no method given); assay type: cell-based; settings: component commonly found in extracts of Echinacea
per1 gene expression = per1 gene expression luciferase reporter assay in keratinocytes; assay type: cell-based; settings: normal human epidermal keratinocytes (NHEK) transfected with pGL4.11 per1/luciferase plasmid; 16 hours incubation with test material; values only in FIGS. 1 and 2
Procedure: Cichoric acid and […] purpurea extract ([…]) were tested to determine per1 gene expression. Normal human epidermal keratinocytes (NHEK) were diluted in […] with supplement S001-5 added (Gibco, Cascade Biologics, Invitrogen) to form a concentration of 3×10^4 and plated onto a black walled 96 well microtiter plate by adding 100 μl in each well. The plate was incubated for 3 hours at 37° C. in 5% CO2. The media was removed and remaining adhered cells rinsed with […], supplement free. A plasmid solution was prepared by diluting Tris-EDTA pH 8.0 buffer with plasmid pGL4.11 (DNA 2.0, Carlsbad, Calif.) to form a 1 mg/ml solution. This plasmid contained a per1 gene sequence and a luciferase reporter gene sequence. A transfection mixture was prepared by diluting […], supplement free, to form a solution with 0.31 μg/ml of plasmid (obtained by adding appropriate amount of plasmid solution prepared above), 1.28% PlusTM Reagent (Catalog No. 11514-015, Invitrogen, Carlsbad, Calif.), and 3.22% LipofectamineTM Transfection Reagent (Catalog No. 18324-012, Invitrogen, Carlsbad, Calif.). […] Immediately prior to reading, Bright-GloTM (Pro-Mega, Madison Wis.) was added to each well plate in the same volume as is currently in the well (e.g. a 1:1 dilution). Luminescence was measured in an LMaxTM Microplate Luminometer (Molecular Devices, Sunnyvale, Calif.).

Row | per1 gene expression (luminescence of per1-luciferase reporter) (per1 gene expression) | SMILES | per1 gene expression in skin cells [1]
1 |  | O=C(/C=C/c1ccc(O)c(O)c1)O[C@@H](C(=O)O)[C@@H](O)C(=O)O [caftaric acid] | does not increase per1 gene expression
2 | stimulate per1 gene expression | O=C(/C=C/c1ccc(O)c(O)c1)O[C@@H](C(=O)O)[C@@H](OC(=O)/C=C/c1ccc(O)c(O)c1)C(=O)O [cichoric acid] | 

— US20170354629A1, “Method And Compositions For Treating Skin” (ELC Management LLC, priority 2011, published 2017)
